This passage reports IC50 results from patent US7001921B1, “Cell adhesion inhibitors” (Biogen Idec MA Inc., priority 1995, dated 2006).

The assay deals with T1, VLA4 (Homo sapiens, UniProt P05556+P13612).
T1 construct: endogenous in cells; host or cells: Ramos cells
T1 sequence (P13612 34-1032): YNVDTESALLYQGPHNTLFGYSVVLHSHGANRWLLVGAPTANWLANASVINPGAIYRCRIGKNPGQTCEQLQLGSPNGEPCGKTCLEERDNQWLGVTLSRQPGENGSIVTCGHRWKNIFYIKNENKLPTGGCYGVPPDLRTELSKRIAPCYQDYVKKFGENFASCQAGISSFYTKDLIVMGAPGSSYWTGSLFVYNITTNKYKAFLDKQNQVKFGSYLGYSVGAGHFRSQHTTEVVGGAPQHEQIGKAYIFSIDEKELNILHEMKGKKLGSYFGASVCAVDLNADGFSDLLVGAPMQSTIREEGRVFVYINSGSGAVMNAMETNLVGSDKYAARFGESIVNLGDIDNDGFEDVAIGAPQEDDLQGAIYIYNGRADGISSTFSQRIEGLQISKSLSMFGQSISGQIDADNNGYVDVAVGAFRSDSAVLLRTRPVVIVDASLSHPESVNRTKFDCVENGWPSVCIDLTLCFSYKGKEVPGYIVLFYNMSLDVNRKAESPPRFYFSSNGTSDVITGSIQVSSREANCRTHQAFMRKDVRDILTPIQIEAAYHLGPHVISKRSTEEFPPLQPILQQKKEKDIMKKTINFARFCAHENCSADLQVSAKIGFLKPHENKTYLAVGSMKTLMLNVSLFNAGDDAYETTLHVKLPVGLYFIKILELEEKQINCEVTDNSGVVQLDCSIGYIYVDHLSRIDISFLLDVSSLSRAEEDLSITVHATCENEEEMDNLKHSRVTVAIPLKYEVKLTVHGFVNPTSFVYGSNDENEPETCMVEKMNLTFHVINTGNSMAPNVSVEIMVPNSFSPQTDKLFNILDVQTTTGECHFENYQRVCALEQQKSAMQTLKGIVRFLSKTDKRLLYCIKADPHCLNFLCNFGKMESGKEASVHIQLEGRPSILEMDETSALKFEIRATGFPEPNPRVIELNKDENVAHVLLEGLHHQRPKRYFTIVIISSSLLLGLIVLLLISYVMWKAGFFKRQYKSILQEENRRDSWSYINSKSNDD
T1 sequence (P05556 21-798): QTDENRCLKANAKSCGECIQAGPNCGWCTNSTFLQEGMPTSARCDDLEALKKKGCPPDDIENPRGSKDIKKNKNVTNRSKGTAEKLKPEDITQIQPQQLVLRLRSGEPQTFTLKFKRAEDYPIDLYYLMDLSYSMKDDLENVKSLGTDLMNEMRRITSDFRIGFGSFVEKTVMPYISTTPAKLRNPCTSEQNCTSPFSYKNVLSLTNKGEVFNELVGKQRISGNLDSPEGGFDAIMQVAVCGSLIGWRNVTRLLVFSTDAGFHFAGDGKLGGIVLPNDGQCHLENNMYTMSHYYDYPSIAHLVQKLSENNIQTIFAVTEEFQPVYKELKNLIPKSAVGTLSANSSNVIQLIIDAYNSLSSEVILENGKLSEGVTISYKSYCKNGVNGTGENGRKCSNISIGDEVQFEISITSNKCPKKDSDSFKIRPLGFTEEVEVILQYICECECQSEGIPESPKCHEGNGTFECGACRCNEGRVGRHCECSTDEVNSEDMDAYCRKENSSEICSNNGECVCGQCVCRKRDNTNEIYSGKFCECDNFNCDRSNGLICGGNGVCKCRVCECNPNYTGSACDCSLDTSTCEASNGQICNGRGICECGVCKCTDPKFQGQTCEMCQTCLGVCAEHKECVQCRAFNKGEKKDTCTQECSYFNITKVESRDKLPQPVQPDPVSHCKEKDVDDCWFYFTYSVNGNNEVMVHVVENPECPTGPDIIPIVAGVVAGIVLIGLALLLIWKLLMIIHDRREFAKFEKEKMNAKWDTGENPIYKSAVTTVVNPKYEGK
The experiment in a line: Inhibition of VLA4-dependent adhesion to BSA-CS1 (labelled Ramos cells). In kind it is cell-based. Particulars: binding of BCECF-AM labelled Ramos cells to CS1 peptide-coated wells, 2 mM MnCl2, 30 minutes at room temperature; IC50 range. Put shortly:
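Ramos cells labelled with 2 μM BCECF-AM, with 2 mM MnCl2 added to upregulate VLA4, were incubated with test compound (final 0.01 nM–10 μM, triplicate) on BSA-CS1-coated wells for 30 min at room temperature in TRIS buffer pH 7.4. After washing, bound fluorescence was read, with uncoated wells giving non-specific binding.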
`CCC(C)C(NC(=O)Cc1ccccc1)C(=O)NC(CC(=O)O)c1ccccc1` (stereo not shown) [compound 1040] returned an IC50 of 0.05 to 10 µM.

The molecule `CCc1ccccc1NC(=O)Nc1ccc(CC(=O)NC(CC(C)C)C(=O)NC(CC(=O)O)c2ccc(OC)cc2)cc1` (stereo not shown) [compound 1208] had a half-inhibitory concentration (IC50) of 0.05 to 10 µM.

Turning to `CCCCCCC(=O)NC(CC(C)C)C(=O)NC(CC(=O)O)c1ccccc1` (stereo not shown) [compound 1094], the IC50 is over 10 µM.

On to `CC(C)CC(NC(=O)Cc1ccc(NC(=O)Nc2ccccc2)cc1)C(=O)NC(CC(=O)O)c1ccccc1` (stereo not shown) [compound 1060], for which the IC50 was in the range of 0.05 to 10 µM.

Molecule `COc1ccc(C(CC(=O)O)NC(=O)C(CC[S+](C)[O-])NC(=O)Cc2ccc(NC(=O)Nc3ccccc3)cc2)cc1` (stereo not shown) [compound 1199] returned a 50% inhibitory concentration (IC50) of 0.05 to 10 µM.

`CC(C)CC(NC(=O)Cc1ccc(O)cc1)C(=O)NC(CC(=O)O)c1ccccc1` (stereo not shown) [compound 1144] displayed an IC50 of 0.05 to 10 µM.

Molecule `CN(C)CCC(NC(=O)Cc1ccc(NC(=O)Nc2ccccc2)cc1)C(=O)NC(CC(=O)O)c1ccc2c(c1)OCO2` (stereo not shown) [compound 1215] came in with an IC50 of over 10 µM.

For `CC(C)CC(NC(=O)Cc1ccccc1)C(=O)NC(CC(=O)O)c1ccc2c(c1)OCO2` (stereo not shown) [compound 1158], the IC50 was in the range of 0.05 to 10 µM.

In turn, `Cc1ccccc1NC(=O)Nc1ccc(CC(=O)NC(CC(C)C)C(=O)NC(CC(=O)O)c2ccc(F)cc2)cc1` (stereo not shown) [compound 1248] gave an IC50 of under 0.05 µM.

`CC(C)CC(C(=O)NC(CC(=O)O)c1ccccc1)N(C)C(=O)CCc1ccc(O)cc1` (stereo not shown) [compound 1087] displayed an IC50 of over 10 µM.

Regarding `CC(C)CC(C(=O)NC(CC(=O)O)c1ccccc1)N(C)C(=O)Cc1ccccc1` (stereo not shown) [compound 1114], the IC50 was over 10 µM.

Molecule `CC(C)CC(NC(=O)Cc1cccc2ccccc12)C(=O)NC(CC(=O)O)c1ccccc1` (stereo not shown) [compound 1021] yielded an IC50 of 0.05 to 10 µM.

`COc1cc(CC(=O)NC(CC(C)C)C(=O)NC(CC(=O)O)c2ccc3c(c2)OCO3)ccc1NC(=O)Nc1ccccc1` (stereo not shown) [compound 1056]: the concentration for half-maximal inhibition (IC50) was under 0.05 µM.

Molecule `COc1ccc(C(CC(=O)O)NC(=O)C(CCSC)NC(=O)Cc2ccc(O)cc2)cc1` (stereo not shown) [compound 1174] returned an IC50 of 0.05 to 10 µM.

With `CNC(=O)Nc1ccc(CC(=O)NC(CC(C)C)C(=O)NC(CC(=O)O)c2ccc3c(c2)OCO3)cc1` (stereo not shown) [compound 1064], the IC50 is 0.05 to 10 µM.

The molecule `CC(C)CC(NC(=O)OCc1ccccc1)C(=O)NC(CC(=O)O)c1ccccc1` (stereo not shown) [compound 1085] showed an IC50 of over 10 µM.

Molecule `COc1ccc(C(CC(=O)O)NC(=O)C(CC(C)C)NC(=O)Cc2ccc(NC(=O)Nc3cccnc3)cc2)cc1OC` (stereo not shown) [compound 1219] registered an IC50 of 0.05 to 10 µM.

Turning to `CC(C)CC(NC(=O)CCCc1ccccc1)C(=O)NC(CC(=O)O)c1ccccc1` (stereo not shown) [compound 1082], the IC50 was over 10 µM.

The molecule `COc1cc(CC(=O)NC(CC(C)C)C(=O)NC(CC(=O)O)c2ccccc2)c(Br)cc1O` (stereo not shown) [compound 1100] had a concentration for half-maximal inhibition (IC50) of 0.05 to 10 µM.

For `CC(C)CC(NC(=O)Cc1ccccc1O)C(=O)NC(CC(=O)O)c1ccccc1` (stereo not shown) [compound 1096], the IC50 is over 10 µM.

Regarding `COc1ccc(C(CC(=O)O)NC(=O)C(CC(C)C)N(C)C(=O)Cc2ccc(NC(=O)Nc3ccccc3)cc2)cc1` (stereo not shown) [compound 1193], the IC50 was in the range of 0.05 to 10 µM.

Molecule `CC(C)CC(NC(=O)Cc1ccc(NC(=O)NC(C)C)cc1)C(=O)NC(CC(=O)O)c1ccc2c(c1)OCO2` (stereo not shown) [compound 1065] registered an IC50 of 0.05 to 10 µM.
